{"source": "patent US20140187430A1", "about": "“Compositions and Methods for Identifying Autism Spectrum Disorders” (George Washington University, priority 2010, published 2014)", "format_in_all_cases": "cell-based, human", "key": {"BCL-2": {"tested_on": "BCL-2", "test": "qRT-PCR of BCL-2 transcript in LCL after 5-Aza-2-deoxycytidine treatment", "conditions": "5 μM, 48 hours", "method": "(§1) LCL, which were obtained from the Autism Genetic Research Exchange (AGRE; Los Angeles, Calif.) were derived from lymphocytes of autistic and normal siblings and cultured as previously described (Hu et al. (2006) BMC Genomics 7, 118). Demethylating treatments were carried out by incubating cells in culture with 5 μM 5-Aza-2-deoxycytidine (Fluka, St. Louis, Mo.) or vehicle control, DMSO (FisherBioTech, Pittsburgh, Pa.) for 48 hours before harvesting cells.\n(§2) Genomic DNA was isolated using the Qiagen DNeasy™ Blood and Tissue Kit (Valencia, Calif.) and used for bisulfite modification for methylation analyses. Total RNA was isolated using TRIzol reagent (Invitrogen, Carlsbad, Calif.) according to the manufacturer's protocol and used for gene expression analyses by quantitative RT-PCR. […]\n(§3) Two candidate genes, BCL-2 and RORA, were chosen for quantitative real-time (RT)-PCR analysis to examine the correlation between expression of mRNA transcript and methylation status as predicted by microarray analysis, as well as to examine the effect of 5-Aza-2-deoxycytidine treatment on transcript levels. […] The qPCR reactions (in triplicate) were analyzed on an ABI Prism 7300 Sequence Detection System and transcript levels of BCL-2 and RORA were quantified and normalized to standard curves obtained using universal 18S rRNA primers."}, "[1]": {"tested_on": "upstream CpG island region of RORA", "test": "Methylation-specific PCR (MSP) of upstream CpG island region of RORA in LCL", "conditions": "LCL of autistic individuals; 5 μM, 48 hours", "method": "as §1\nTwo ug of genomic DNA isolated from LCL were treated with sodium bisulfite using the Active Motif MethylDetector kit (Carlsbad, Calif.) according to the manufacturer's specifications. Successful bisulfite treatment and conversion was verified using positive control PCR primers for the p16 (CDKN2A) locus provided in the MethylDetector kit.\nFor methylation-specific PCR (MSP), 2 sets of primers spanning a region approximately 300 bp upstream of the first exon of RORA (UHNhscpg0014103; chr15:59309160-59309428) were designed according to assumed differences in methylation status (i.e., fully methylated or fully unmethylated). These primers were previously successful in identifying methylation-specific silencing of RORA in several gastric cancer cell lines (Yamashita et al. (2006) Cancer Science 97, 64-71). Bisulfite-modified genomic DNA was used as a template for PCR and PCR products were resolved by agarose gel electrophoresis."}, "RORA": {"tested_on": "RORA", "test": "qRT-PCR of RORA transcript in LCL after 5-Aza-2-deoxycytidine treatment", "conditions": "5 μM, 48 hours", "method": "as §1, §2, §3"}, "[2]": {"conditions": "LCL from the \"mild\" undiagnosed co-twins"}, "[3]": {"conditions": "LCL of autistic individuals, vs DMSO vehicle"}}, "note": "Entries after “also recorded” stand apart in the source; their conditions may differ.", "data": [{"smiles": "Nc1ncn([C@H]2C[C@H](O)[C@@H](CO)O2)c(=O)n1", "note": "[5-Aza-2-deoxycytidine]", "values": [{"measurement": "change in BCL-2 expression level with treatment", "setting": "BCL-2; [2]", "value": "no statistically significant increases"}, {"measurement": "fold-change in BCL-2 transcript expression following treatment", "setting": "BCL-2; [3]", "value": 1.5, "unit": "fold"}, {"measurement": "methylated PCR product of RORA promoter region (MSP) following treatment", "setting": "[1]", "value": "absence of methylated product; also recorded: absence of methylation"}, {"measurement": "change in RORA expression level with treatment", "setting": "RORA; [2]", "value": "no statistically significant increases"}, {"measurement": "fold-change in RORA transcript expression following treatment", "setting": "RORA; [3]", "value": 1.8, "unit": "fold"}]}]}
